Reference: patent US20080051438A1, “Preventive/Therapeutic Compositions Useful for Treating Cardiovascular Diseases” (priority 2006, published 2008)
“And” between values parts separate entries of the source, which are not always exact repeats. Equal entries are not always repeated. Marks after values point to notes of the source that are not given here.

Key:
Type in all cases: in vivo, human
hypertensive patients [1] = assay: Special investigation of combined use of cilnidipine and ARB: occurrence of side-effects (safety analysis); conditions: for side-effect number of cases / side-effect number of examples: cilnidipine and ARB; for side-effect occurence rate (%): combined administration of cilnidipine and ARB
Procedure: (§1) A special investigation was conducted in various medical centers, compiled, and analyzed to evaluate the safety and availability of the combined use of cilnidipine and at least one angiotensin II receptor blocker.
The investigation was conducted mainly in the departments of internal medicine/cardiovascular diseases of various medical institutions. The target of the estimated collected cases was about 3000 cases.
(§2) The subjects of the investigation were hypertensive patients which were adapted to cilnidipine. Combined administration of cilnidipine and ARB was started for the treatment of hypertension in these patients.
(§3) A prospective continuous investigation method was conducted. Such a method is continuously conducted with the registered cases with the combined administration of cilnidipine (Atelec®) and ARB, until the number of cases reaches the contracted cases for each center.
(§4) Regarding the administration method of cilnidipine, 5 to 10 mg of cilnidipine was orally administered after breakfast once a day. Meanwhile, the amount may increase or decrease depending on patient's age, symptoms, or the like. When the effect is insufficient, the amount can be increased to 20 mg once a day. The dosing period of cilnidipine was set to 12 weeks in principle.
(§5) The following items were tracked during the investigation: patient's background (sex), existence or nonexistence of previous therapeutic agents and the content thereof, targeted blood pressure (systolic BP/diastolic BP), the conditions of administration of cilnidipine and ARB, antihypertensives used in combination (those other than cilnidipine or ARB), clinical course (systolic BP/diastolic BP/heart rate), and occurrence of side-effects. As for the availability of the combined administration, in the 12th week after starting the combined administration, the doctor in attendance judged the degree of the blood pressure controls on a three-point scale of “well-controlled”, “nearly well-controlled” and “poorly-controlled”, referring to the changes in the systolic and diastolic BP. As for the safety and availability analysis for each patient background, Fisher's exact probability test or the X^2 test was used. As for the blood pressure and heart rate, the average value and the standard deviation were calculated for the subjects before the combined administration (within 4 weeks before starting the combined administration), and data after starting the combined administration were determined on each observation day, and analysis was conducted by using a paired t-test. The test was conducted as the two-sided test and less than 5% of the risk rate was regarded as significant. Furthermore, side-effects were compiled based on the naming of preferred terms (PT) of MedDRA/J ver 8.0.
The ratios of the cases wherein side-effects occurred were compared and examined between the sexes in the 2920 cases of the safety analysis (Table 5). […] The ratio thereof in a female group was 3.2% and that in a male group was 1.8%. […] The side-effects observed were mainly subjective symptoms such as headache, palpitation, and free-floating dizziness. Meanwhile, the ratio of the cases wherein the side-effects of these subjective symptoms occurred was low, and it is not a serious side-effect caused by the combined administration.

hypertensive patients [2] = assay: Special investigation of combined use of cilnidipine and ARB: changes in systolic and diastolic blood pressure; conditions: for diastolic BP, aft. / systolic BP, aft. / diastolic BP, bef. / systolic BP, bef.: all availability cases; for diastolic BP, bef. use / systolic BP, bef. use / diastolic BP, aft. use / systolic BP, aft. use: only ARB
Procedure: as §1, §2, §3, §4, §5
Table 7 and FIG. 2 show the number of cases for which the blood pressure was measured, and the changes in the measured values of systolic BP, diastolic BP, and heart rate were measured at the following time points: before starting the combined administration, 4 weeks, 8 weeks, and 12 weeks after starting the combined administration, and the last measurement, […] administration, n=2919). […] Then, it continued to slowly decrease, and the a stable change was seen up to 12 weeks after the start.

hypertensive patients [3] = assay: Special investigation of combined use of cilnidipine and ARB: changes in heart rate; conditions: for heart rate after starting the combined administration / heart rate after starting the combined use: 12 weeks and later up to last measurement; for heart rate, aft. / heart rate, bef.: all availability cases; for heart rate, bef. use / heart rate, aft. use: only ARB
Procedure: as §1, §2, §3, §4, §5
Table 7 and FIG. 2 show the number of cases for which the blood pressure was measured, and the changes in the measured values of systolic BP, diastolic BP, and heart rate were measured at the following time points: before starting the combined administration, 4 weeks, 8 weeks, and 12 weeks after starting the combined administration, and the last measurement, which was 222.43 days in average from the start of the combined administration, n=2919). […] Then, it continued to slowly decrease, and the a stable change was seen up to 12 weeks after the start.

hypertensive patients [4] = assay: Special investigation of combined use of cilnidipine and ARB: changes in systolic and diastolic blood pressure; conditions: only ARB, then cilnidipine singularly added; last measurement (222.03±143.88 days)
[5] = cilnidipine + ARB, 4 wks after use
[6] = cilnidipine + ARB, 8 wks after use
[7] = cilnidipine + ARB, 12 wks after use
[8] = cilnidipine + ARB, before combined use, 2,586 cases
[9] = cilnidipine + ARB, last measurement (222.43 days in average)
[10] = value before combined use of the 840 cases measured at 8 wks
[11] = value before combined use of the 950 cases measured at 12 wks
[12] = value before combined use of the 1,131 cases measured at 4 wks
[13] = value before combined use of the 2,565 cases with last measurement
[14] = then cilnidipine added, value before combined use of the 338 cases measured at 8 wks
[15] = then cilnidipine added, value before combined use of the 360 cases measured at 12 wks
[16] = then cilnidipine added, value before combined use of the 453 cases measured at 4 wks
[17] = then cilnidipine added, value before combined use of the 1,047 cases with last measurement
[18] = then cilnidipine singularly added, 4 wks after the use
[19] = then cilnidipine singularly added, 8 wks after the use
[20] = then cilnidipine singularly added, 12 wks after the use
[21] = then cilnidipine singularly added, before combined use, 1,055 cases
[22] = then cilnidipine singularly added, last measurement (222.03±143.88 days)
[23] = all availability cases with heart rate 75 or higher and less than 85 beats/min. before combined use
[24] = all availability cases with heart rate 85 beats/min. or higher before combined use
[25] = only ARB then cilnidipine added, cases with heart rate 75 or higher and less than 85 beats/min. before combined use
[26] = only ARB then cilnidipine added, cases with heart rate 85 beats/min. or higher before combined use

With `COCCOC(=O)C1=C(C)NC(C)=C(C(=O)OC/C=C/c2ccccc2)C1c1cccc([N+](=O)[O-])c1` (racemic) [cilnidipine, 2-methoxyethyl-3-phenyl-2(E)-propenyl(±)-1,4-dihydro-2,6-dimethyl-4-(3-nitrophenyl)-3,5-pyridinedicarboxylate] the “ratio of the cases wherein side-effects occurred” value (hypertensive patients [1]; cases on ARB alone to which cilnidipine was additionally administered) was “low”, the “side-effect number of cases” value (hypertensive patients [1]; female group, 1,481 cases) was 56 and the “side-effect number of examples” value (hypertensive patients [1]; female group, 1,481 cases) was 47. For the same molecule, the “side-effect occurence rate (%)” value (hypertensive patients [1]; female group, 1,481 cases) was 3.2% and 3.17%, the “side-effect number of cases” value (hypertensive patients [1]; male group, 1,416 cases) was 32 and the “side-effect number of examples” value (hypertensive patients [1]; male group, 1,416 cases) was 26. For the same molecule, the “side-effect occurence rate (%)” value (hypertensive patients [1]; male group, 1,416 cases) was 1.8% and 1.84%, the “side-effect number of cases” value (hypertensive patients [1]; sex unknown, 23 cases) was 0 and the “side-effect number of examples” value (hypertensive patients [1]; sex unknown, 23 cases) was 0. The “side-effect occurence rate (%)” value (hypertensive patients [1]; sex unknown, 23 cases) was 0%, the “diastolic BP, aft.” value (hypertensive patients [2]; [5]) was 80.44 ± 11.30 mmHg and the “systolic BP, aft.” value (hypertensive patients [2]; [5]) was 144.31 ± 16.64 mmHg. The “diastolic BP, aft.” value (hypertensive patients [2]; [6]) was 78.69 ± 10.99 mmHg, the “systolic BP, aft.” value (hypertensive patients [2]; [6]) was 142.28 ± 17.41 mmHg and the “diastolic BP, aft.” value (hypertensive patients [2]; [7]) was 78.64 ± 11.39 mmHg. For the same molecule, the “systolic BP, aft.” value (hypertensive patients [2]; [7]) was 140.57 ± 16.45 mmHg, the “diastolic BP, bef.” value (hypertensive patients [2]; [8]) was 89.49 ± 13.09 mmHg and the “systolic BP, bef.” value (hypertensive patients [2]; [8]) was 162.21 ± 19.21 mmHg. For the same molecule, the “diastolic BP, aft.” value (hypertensive patients [2]; [9]) was 78.78 ± 10.68 mmHg, the “systolic BP, aft.” value (hypertensive patients [2]; [9]) was 139.67 ± 16.47 mmHg and the “diastolic BP, bef.” value (hypertensive patients [2]; [10]) was 88.22 ± 13.53 mmHg. The “systolic BP, bef.” value (hypertensive patients [2]; [10]) was 161.13 ± 18.47 mmHg, the “diastolic BP, bef.” value (hypertensive patients [2]; [11]) was 88.56 ± 13.48 mmHg and the “systolic BP, bef.” value (hypertensive patients [2]; [11]) was 161.63 ± 18.58 mmHg. For the same molecule, the “diastolic BP, bef.” value (hypertensive patients [2]; [12]) was 88.80 ± 12.94 mmHg, the “systolic BP, bef.” value (hypertensive patients [2]; [12]) was 161.96 ± 19.46 mmHg and the “diastolic BP, bef.” value (hypertensive patients [2]; [13]) was 89.51 ± 13.09 mmHg. For the same molecule, the “systolic BP, bef.” value (hypertensive patients [2]; [13]) was 162.19 ± 19.11 mmHg, the “diastolic BP, bef. use” value (hypertensive patients [2]; [14]) was 90.63 ± 13.13 mmHg and the “systolic BP, bef. use” value (hypertensive patients [2]; [14]) was 162.45 ± 16.04 mmHg. For the same molecule, the “diastolic BP, bef. use” value (hypertensive patients [2]; [15]) was 90.26 ± 12.40 mmHg, the “systolic BP, bef. use” value (hypertensive patients [2]; [15]) was 161.92 ± 15.66 mmHg and the “diastolic BP, bef. use” value (hypertensive patients [2]; [16]) was 90.72 ± 12.00 mmHg. For the same molecule, the “systolic BP, bef. use” value (hypertensive patients [2]; [16]) was 163.61 ± 15.91 mmHg, the “diastolic BP, bef. use” value (hypertensive patients [2]; [17]) was 91.31 ± 11.47 mmHg and the “systolic BP, bef. use” value (hypertensive patients [2]; [17]) was 163.11 ± 16.40 mmHg. The “diastolic BP, aft. use” value (hypertensive patients [2]; [18]) was 81.47 ± 10.51^b mmHg, the “systolic BP, aft. use” value (hypertensive patients [2]; [18]) was 143.91 ± 15.39^b mmHg and the “diastolic BP, aft. use” value (hypertensive patients [2]; [19]) was 79.75 ± 10.37^b mmHg. The “systolic BP, aft. use” value (hypertensive patients [2]; [19]) was 140.97 ± 15.94^b mmHg, the “diastolic BP, aft. use” value (hypertensive patients [2]; [20]) was 79.71 ± 11.23^b mmHg and the “systolic BP, aft. use” value (hypertensive patients [2]; [20]) was 140.09 ± 15.37^b mmHg. For the same molecule, the “diastolic BP, bef. use” value (hypertensive patients [2]; [21]) was 91.26 ± 11.48 mmHg, the “systolic BP, bef. use” value (hypertensive patients [2]; [21]) was 163.09 ± 16.36 mmHg and the “diastolic BP, aft. use” value (hypertensive patients [2]; [22]) was 79.68 ± 10.68^b mmHg. The “heart rate before starting the combined use” value (hypertensive patients [3]; [23]) was 79.19±2.73 beats/min, the “heart rate after starting the combined administration” value (hypertensive patients [3]; [23]) was 76.28±8.93 beats/min and the “heart rate before starting the combined use” value (hypertensive patients [3]; [24]) was 93.48±7.28 beats/min. For the same molecule, the “heart rate after starting the combined administration” value (hypertensive patients [3]; [24]) was 84.57±11.17 beats/min, the “heart rate, aft.” value (hypertensive patients [3]; [5]) was 73.80 ± 10.80 beat/min and the “heart rate, aft.” value (hypertensive patients [3]; [6]) was 72.87 ± 10.53 beat/min. The “heart rate, aft.” value (hypertensive patients [3]; [7]) was 73.61 ± 10.57 beat/min, the “heart rate, bef.” value (hypertensive patients [3]; cilnidipine + ARB, before combined use, 1,815 cases) was 75.40 ± 11.47 beat/min and the “heart rate, aft.” value (hypertensive patients [3]; [9]) was 73.18 ± 10.37 beat/min. For the same molecule, the “heart rate, bef.” value (hypertensive patients [3]; value before combined use of the 557 cases measured at 8 wks) was 73.83 ± 10.49 beat/min, the “heart rate, bef.” value (hypertensive patients [3]; value before combined use of the 664 cases measured at 12 wks) was 75.33 ± 10.98 beat/min and the “heart rate, bef.” value (hypertensive patients [3]; value before combined use of the 765 cases measured at 4 wks) was 75.06 ± 11.46 beat/min. For the same molecule, the “heart rate, bef.” value (hypertensive patients [3]; value before combined use of the 1,615 cases with last measurement) was 75.18 ± 11.30 beat/min, the “heart rate before starting the combined use” value (hypertensive patients [3]; [25]) was 79.24±2.71 beats/min and the “heart rate after starting the combined use” value (hypertensive patients [3]; [25]) was 76.87±8.37 beats/min. For the same molecule, the “heart rate before starting the combined use” value (hypertensive patients [3]; [26]) was 93.64±6.90 beats/min, the “heart rate after starting the combined use” value (hypertensive patients [3]; [26]) was 84.30±10.58 beats/min and the “heart rate, bef. use” value (hypertensive patients [3]; then cilnidipine added, value before combined use of the 229 cases measured at 8 wks) was 72.97 ± 10.16 beat/min. For the same molecule, the “heart rate, bef. use” value (hypertensive patients [3]; then cilnidipine added, value before combined use of the 249 cases measured at 12 wks) was 73.98 ± 10.44 beat/min, the “heart rate, bef. use” value (hypertensive patients [3]; then cilnidipine added, value before combined use of the 308 cases measured at 4 wks) was 73.40 ± 10.54 beat/min and the “heart rate, bef. use” value (hypertensive patients [3]; then cilnidipine added, value before combined use of the 648 cases with last measurement) was 74.26 ± 10.58 beat/min. For the same molecule, the “heart rate, aft. use” value (hypertensive patients [3]; [18]) was 72.49 ± 10.25^a beat/min, the “heart rate, aft. use” value (hypertensive patients [3]; [19]) was 72.62 ± 10.60 beat/min and the “heart rate, aft. use” value (hypertensive patients [3]; [20]) was 72.54 ± 10.28^a beat/min. The “heart rate, bef. use” value (hypertensive patients [3]; then cilnidipine singularly added, before combined use, 738 cases) was 74.46 ± 10.76 beat/min, the “heart rate, aft. use” value (hypertensive patients [3]; [22]) was 73.24 ± 10.51^a beat/min and the “systolic BP, aft. use” value (hypertensive patients [4]) was 139.73 ± 15.77^b mmHg.
